{"source": "patent US8383125B2", "about": "“Antimicrobial protein” (Agriculture Victoria Services Pty, Limited, priority 2006, dated 2013)", "key": {"[1]": {"test_system": "Bacillus subtilis", "assay_type": "cell-based", "conditions": "Table 1"}, "[2]": {"test_system": "Streptococcus equi equi (ATCC 9527)", "assay_type": "cell-based", "conditions": "Table 1"}, "[3]": {"test_system": "Candida albicans (ATCC 753)", "assay_type": "cell-based", "conditions": "Table 1"}, "[4]": {"test_system": "P. aeruginosa strain FADDI 001", "assay_type": "cell-based, Pseudomonas aeruginosa", "conditions": "strain FADDI 001, 17 h", "description": "(§1) The MIC values of SEQ ID NO: 2 and SEQ ID NO: 19 were also determined against a range of multidrug-resistant isolates, including clinical and laboratory strains. Peptides, maintained at −20° C. in solid form for storage purposes, were subsequently dissolved in 0.01% (v/v) acetic acid (Sigma-Aldrich) to a stock concentration of […]. The stock solutions were made fresh for each experiment. Eighteen (18) bacterial isolates obtained from the Facility for Anti-Infective Drug Development and Innovation, Victoria, Australia (FADDI) as listed in Table 2 were maintained as stock cultures in Tryptic Soya Broth plus 20% (v/v) glycerol at a temperature of −80° C., and subcultured onto Nutrient Agar for each experiment. MIC values were determined in cation-adjusted Mueller-Hinton broth (CAMHB) and Mueller-Hinton broth (MHB) using standard broth micro-dilution methods."}, "[5]": {"test_system": "P. aeruginosa strain FADDI 002", "assay_type": "cell-based, Pseudomonas aeruginosa", "conditions": "strain FADDI 002, 17 h", "description": "as §1"}, "[6]": {"test_system": "P. aeruginosa strain FADDI 003", "assay_type": "cell-based, Pseudomonas aeruginosa", "conditions": "strain FADDI 003, 17 h", "description": "as §1"}, "[7]": {"test_system": "P. aeruginosa strain FADDI 004", "assay_type": "cell-based, Pseudomonas aeruginosa", "conditions": "strain FADDI 004, 17 h", "description": "as §1"}, "[8]": {"test_system": "A. baumannii strain FADDI 005 (ATCC 19606 derivative)", "assay_type": "cell-based, Acinetobacter baumannii", "conditions": "17 hr at 35° C.", "description": "as §1\nPseudomonas aeruginosa (ATCC 27853) and S. aureus (ATCC 43300) were included as quality controls in experiments. P. aeruginosa strains FADDI 001 and FADDI 002 are mucoid; and P. aeruginosa strains FADDI 003 and FADDI 004 are non-mucoid. P. aeruginosa strain FADDI 003 also has a small colony morphology. The A. baumannii strain FADDI 005 is a colistin-resistant isolate obtained from Mueller-Hinton agar containing 10 mg/L colistin."}, "[9]": {"test_system": "A. baumannii strain FADDI 006", "assay_type": "cell-based, Acinetobacter baumannii", "conditions": "strain FADDI 006, 17 h", "description": "as §1"}, "[10]": {"test_system": "A. baumannii strain FADDI 007", "assay_type": "cell-based, Acinetobacter baumannii", "conditions": "strain FADDI 007, 17 h", "description": "as §1"}, "[11]": {"test_system": "K. pneumoniae strain FADDI 008", "assay_type": "cell-based, Klebsiella pneumoniae", "conditions": "strain FADDI 008, 17 h", "description": "as §1"}, "[12]": {"test_system": "K. pneumoniae strain FADDI 009", "assay_type": "cell-based, Klebsiella pneumoniae", "conditions": "strain FADDI 009, 17 h", "description": "as §1"}, "[13]": {"test_system": "K. pneumoniae strain FADDI 010", "assay_type": "cell-based, Klebsiella pneumoniae", "conditions": "strain FADDI 010, 17 h", "description": "as §1"}, "[14]": {"test_system": "Enterococcus faecium (ATCC 700221)", "assay_type": "cell-based", "conditions": "ATCC 700221, 17 h", "description": "as §1"}, "[15]": {"test_system": "Staphylococcus aureus (ATCC 700698)", "assay_type": "cell-based", "conditions": "ATCC 700698, 17 h", "description": "as §1"}, "[16]": {"test_system": "S. aureus (ATCC 43300)", "assay_type": "cell-based, Staphylococcus aureus", "conditions": "ATCC 43300, 17 h", "description": "as §1"}, "[17]": {"test_system": "S. aureus 700699", "assay_type": "cell-based, Staphylococcus aureus", "conditions": "700699, 17 h", "description": "as §1"}, "[18]": {"test_system": "S. aureus strain FADDI 011", "assay_type": "cell-based, Staphylococcus aureus", "conditions": "strain FADDI 011, 17 h", "description": "as §1"}, "[19]": {"test_system": "tammar wallaby erythrocytes", "assay_type": "cell-based", "description": "The toxicity of the antimicrobial peptides was determined using a haemolytic assay. In particular, the hemolytic activity of the peptides was determined using tammar wallaby erythrocytes. Fresh erythrocytes were harvested from heparinized blood taken from a tammar wallaby. Erythrocytes were harvested by centrifugation for 3 min at 3000 g. Erythrocytes were then washed three times with PBS (pH 7.4) until the supernatant was essentially colourless. 20 μl two fold serial dilutions of the peptide were mixed with the same volume of erythrocytes in solution 2%) in PBS of each well of a 96-plate. 80 μl PBS was added to each well after the plate was incubated at 37° C. for one hour. Plates were then centrifuged at 3000 g for 5 min. 90 μl of the resulting supernatant was transferred to a flat-bottom microtiter plate and haemoglobin release was monitored by measuring the absorbance at 414 nm with an ELISA plate reader. […] Each sample was performed in triplicate. Percentage hemolysis was calculated by the following formula: [(OD414 peptide−OD414 buffer)/OD414 complete hemolysis−OD414 buffer)]×100%."}, "[20]": {"test_system": "E. coli DH5α", "conditions": "5 μl of 250 μg/ml solutions of each peptide; E. coli", "quoted_text": "Briefly, approximately 4×10^6 of mid-logarithmic-phase organisms were grown on plates in 11 ml of warm 0.8% agarose containing 0.03% (w/v) Tryticase soy broth (TSB) powder, with or without 100 mM NaCl, buffered with 10 mM sodium phosphate, pH 7.4. The test peptide was serially diluted in acidified water (0.01% acetic acid), and 5 μl of diluted peptide sample was loaded in a 2.5 diameter well in the agarose. A 10 ml overlay gel composed of 6% TSB, 0.8% agarose and 10 mM sodium phosphate buffer (pH 7.4) was poured into each well. Plates were then incubated overnight to allow the surviving organisms to form microcolonies. The clear zone were measured to the nearest 0.1 mm using a magnified transilluminator and expressed in units (1 mm=10 U) after subtracting the well diameter. The minimum inhibitory concentration (MIC) is defined by the χ intercept of a regression line through zone diameters obtained from a series of serially diluted peptide samples."}, "[21]": {"test_system": "Pseudomonas aeruginosa (ATCC 27853)", "parameters": "key: resistant (R); susceptible (S)", "conditions": "Reference isolate; cited from earlier work"}, "[22]": {"test_system": "P. aeruginosa strain FADDI 001", "parameters": "key: resistant (R); susceptible (S)", "conditions": "Clinical specimen; cited from earlier work"}, "[23]": {"test_system": "P. aeruginosa strain FADDI 002", "parameters": "key: resistant (R); susceptible (S)", "conditions": "Clinical specimen; cited from earlier work"}, "[24]": {"test_system": "P. aeruginosa strain FADDI 003", "parameters": "key: resistant (R); susceptible (S)", "conditions": "Clinical specimen; cited from earlier work"}, "[25]": {"test_system": "P. aeruginosa strain FADDI 004", "parameters": "key: resistant (R); susceptible (S)", "conditions": "Clinical specimen; cited from earlier work"}, "[26]": {"test_system": "Acinetobacter baumannii (ATCC 19606)", "parameters": "key: resistant (R); susceptible (S)", "conditions": "Reference isolate; cited from earlier work"}, "[27]": {"test_system": "A. baumannii strain FADDI 005 (ATCC 19606 derivative)", "parameters": "key: resistant (R); susceptible (S)", "conditions": "Laboratory prepared; obtained from Mueller-Hinton agar containing 10 mg/L colistin; cited from earlier work"}, "[28]": {"test_system": "A. baumannii strain FADDI 006", "parameters": "key: resistant (R); susceptible (S)", "conditions": "Clinical specimen; cited from earlier work"}, "[29]": {"test_system": "A. baumannii strain FADDI 007", "parameters": "key: resistant (R); susceptible (S)", "conditions": "Clinical specimen; cited from earlier work"}, "[30]": {"test_system": "Klebsiella pneumoniae (ATCC 13883)", "parameters": "key: resistant (R); susceptible (S)", "conditions": "Reference isolate; cited from earlier work"}, "[31]": {"test_system": "K. pneumoniae strain FADDI 008", "parameters": "key: resistant (R); susceptible (S)", "conditions": "Clinical specimen; cited from earlier work"}, "[32]": {"test_system": "K. pneumoniae strain FADDI 009", "parameters": "key: resistant (R); susceptible (S)", "conditions": "Clinical specimen; cited from earlier work"}, "[33]": {"test_system": "K. pneumoniae strain FADDI 010", "parameters": "key: resistant (R); susceptible (S)", "conditions": "Clinical specimen; cited from earlier work"}}, "note": "Read-outs that look alike come from different tables or passages of the source. Where no end group is shown, it is not given here.", "data": [{"substance": "KRGLWESLKRKATKLGDDIRNTLRNFKIKFPVPRQ-NH2 [SEQ ID NO: 19]", "values": [{"measurement": "antimicrobial activity in words", "setting": "[1]", "result": "moderately protective"}, {"measurement": "antimicrobial activity in words", "setting": "[2]", "result": "moderately protective"}, {"measurement": "antimicrobial activity in words", "setting": "[3]", "result": "Weaker antimicrobial activity"}, {"measurement": "MIC", "setting": "[4]", "result": ">64", "unit": "µg/mL"}, {"measurement": "MIC", "setting": "[5]", "result": ">64", "unit": "µg/mL"}, {"measurement": "MIC", "setting": "[6]", "result": ">64", "unit": "µg/mL"}, {"measurement": "MIC", "setting": "[7]", "result": ">64", "unit": "µg/mL"}, {"measurement": "MIC", "setting": "[8]; CAMHB (10.0 mg/L Mg2+ and 24 mg/L Ca2+)", "result": 8, "unit": "µg/mL"}, {"measurement": "MIC", "setting": "[8]; MHB (less than 5 mg/L Mg2+ and 24 mg/L Ca2+)", "result": 16, "unit": "µg/mL"}, {"measurement": "MIC", "setting": "[9]", "result": ">64", "unit": "µg/mL"}, {"measurement": "MIC", "setting": "[10]", "result": 16, "unit": "µg/mL"}, {"measurement": "MIC", "setting": "[11]", "result": ">64", "unit": "µg/mL"}, {"measurement": "MIC", "setting": "[12]", "result": ">64", "unit": "µg/mL"}, {"measurement": "MIC", "setting": "[13]", "result": ">64", "unit": "µg/mL"}, {"measurement": "MIC", "setting": "[14]", "result": 16, "unit": "µg/mL"}, {"measurement": "MIC", "setting": "[15]", "result": ">64", "unit": "µg/mL"}, {"measurement": "MIC", "setting": "[16]", "result": ">64", "unit": "µg/mL"}, {"measurement": "MIC", "setting": "[17]", "result": ">64", "unit": "µg/mL"}, {"measurement": "MIC", "setting": "[18]", "result": ">64", "unit": "µg/mL"}, {"measurement": "haemolysis at the MIC determined in Example 1", "setting": "[19]", "result": "less than 5%"}, {"measurement": "haemolysis at the majority of concentrations tested (FIGS. 2a and 2b)", "setting": "[19]", "result": "did not cause substantial levels of haemolysis"}, {"measurement": "radial clear zone compared to LL-37 (FIG. 3)", "setting": "[20]", "result": "larger radial clear zone"}]}, {"substance": "colistin", "values": [{"measurement": "Colistin resistant (R) or susceptible (S)", "setting": "[21]", "result": "S"}, {"measurement": "Colistin resistant (R) or susceptible (S)", "setting": "[22]", "result": "S"}, {"measurement": "Colistin resistant (R) or susceptible (S)", "setting": "[23]", "result": "S"}, {"measurement": "Colistin resistant (R) or susceptible (S)", "setting": "[24]", "result": "R"}, {"measurement": "Colistin resistant (R) or susceptible (S)", "setting": "[25]", "result": "R"}, {"measurement": "Colistin resistant (R) or susceptible (S)", "setting": "[26]", "result": "S"}, {"measurement": "Colistin resistant (R) or susceptible (S)", "setting": "[27]", "result": "R"}, {"measurement": "Colistin resistant (R) or susceptible (S)", "setting": "[28]", "result": "R"}, {"measurement": "Colistin resistant (R) or susceptible (S)", "setting": "[29]", "result": "S"}, {"measurement": "Colistin resistant (R) or susceptible (S)", "setting": "[30]", "result": "S"}, {"measurement": "Colistin resistant (R) or susceptible (S)", "setting": "[31]", "result": "S"}, {"measurement": "Colistin resistant (R) or susceptible (S)", "setting": "[32]", "result": "R"}, {"measurement": "Colistin resistant (R) or susceptible (S)", "setting": "[33]", "result": "R"}]}]}
